# Reference: US11299506B2, “Acylnucleoside phosphonates, prodrugs thereof and use thereof as medicament” (UNIVERSITE DE MONTPELLIER, priority 2017, dated 2022)
# Like-named read-outs stand apart in the source and are kept apart here.
# Columns and labels:
# [1] = test system: Plasmodium falciparum (strain 3D7); test: In vitro anti-Plasmodium falciparum activity (infected erythrocytes, radioactive precursor incorporation); type: cell-based
# Protocol: After 48 h of incubation in the absence (control) or in the presence of the compound to be tested, the radioactive precursor is added, and the reaction is continued for another 18 h, then stopped by freezing at −80° C. The macromolecules, including the radiolabeled nucleic acids, are collected on a filter. The incorporated radioactivity is measured with the scintillation counter after addition of scintillation cocktail. The radioactive background noise is measured based on a suspension of healthy erythrocytes (same conditions as for parasite-containing suspensions). The viability of the parasites is expressed as a (nonspecific derived) percentage of the control. […] The IC50 values thus determined are the result of at least two experiments carried out independently in duplicate. Batches A and B correspond to two different syntheses according to the same procedure and carried out in their totality by two different operators, at a six month interval.
# K562 cells = test: Toxicity with respect to K562 cells ([3H]-thymidine incorporation); type: cell-based, human; conditions: 3H-thymidine detection; Batch B; 24 h incubation; read-out: Activity against the K562 cells, 3H-Thymidine, Batch B IC50
# Protocol: Suspensions of human cells (8000 cells per well) are cultured in complete RPMI medium (RPMI 1640 medium, L-glutamine, penicillin/streptomycin and 10% fetal calf serum) (200 μL) either in the absence of the compound to be tested (controls), or in contact with variable concentrations of said compound.
# After 24 h of incubation (or approximately one cell cycle), 0.7 μCi of [^3H]-thymidine (radiolabeled precursor of the synthesis of the nucleic acids) diluted in 30 μL of complete RPMI medium are added to each well. After 6 h of additional incubation, the thymidine incorporation reaction is stopped by freezing at −80° C. As for the determination of the in vitro anti-malarial activity, the macromolecules, including the radiolabeled nucleic acids, are collected on a filter. The incorporated radioactivity is measured with the scintillation counter after addition of scintillation cocktail.
# The radioactive background noise is measured based on complete RPMI medium. The viability of the cells is expressed as a (nonspecific derived) percentage of the control. The measurements are analyzed using Excel and Prism software, and the IC50 (concentration capable of in vitro inhibition of 50% of the growth of the cells) is determined graphically.
# The IC50 values thus determined are the result of at least two experiments performed independently in duplicate.
# Babesia divergens = test: In vitro anti-Babesia divergens activity (infected erythrocytes, [3H]-hypoxanthine incorporation); type: cell-based; conditions: 16 h contact, read-out: Activity against Babesia divergens IC50
# Protocol: After 16 h of incubation in the absence (control) or in the presence of the compound, the radioactive precursor is added and the reaction is continued for another 8 h and then stopped by freezing at −80° C. As for the determination of the in vitro anti-parasitic activity, the macromolecules, including the radiolabeled nucleic acids, are collected on a filter. The incorporated radioactivity is measured with the scintillation counter after addition of scintillation cocktail. The radioactive background noise is measured based on a suspension of healthy erythrocytes (same conditions as for the parasite-containing suspensions). The viability of the parasites is expressed as a (nonspecific derived) percentage of the control. […] The IC50 values thus determined are the result of at least two experiments performed independently in duplicate.
# Toxoplasma gondii = test: In vitro anti-toxoplasmosis activity by plaque assay on HFF fibroblast monolayer; type: cell-based; conditions: 7 days, average of 2 values
# Protocol: This test is based on the capability of Toxoplasma gondii in its intracellular form (tachyzoite) to bring about the lysis of its host cell (here a monolayer of fibroblasts) and to then infect the neighboring cells so that over time (days) a macroscopically visible hole in the monolayer of cells becomes apparent and its area can be measured. In the 24-well culturing plates, approximately 80 parasites are added to a monolayer of fibroblasts (HFF cells) for 7 days in the presence or absence of drug. The cells are then fixed with 4% paraformaldehyde, and then stained with Giemsa. The cells are visualized under the microscope, and the size of the lysis plaques is measured using the software Zen® (Zeiss). The cells are maintained in culture in complete medium (DMEM+5% fetal calf serum+glutamine+penicillin/streptomycin). The ability of the drug to inhibit the growth of Toxoplasma gondii is proportional to the decrease in the size of the lysis plaque.
# The results obtained are collected in Table 4 (average of 2 values) below and in FIG. 1.
# [2] = read-out: Activity against P. falciparum (3D7), detection 3H-Hypoxanthine, Batch B IC50
# [3] = Plasmodium falciparum, 3D7, Erythrocyte, 3H-ethanolamine detection, Batch A, 48 h contact, read-out: Activity against P. falciparum (3D7), detection 3H-Ethanolamine, Batch A IC50
# [4] = Plasmodium falciparum, 3D7, Erythrocyte, 3H-hypoxanthine detection, Batch A, 48 h contact, read-out: Activity against P. falciparum (3D7), detection 3H-Hypoxanthine, Batch A IC50
# [5] = read-out: Activity against P. falciparum (3D7), detection 3H-Ethanolamine, Batch A IC50
# [6] = read-out: Activity against P. falciparum (3D7), detection 3H-Hypoxanthine, Batch A IC50
Compound,"IC50 [1, 4]","IC50 (Babesia divergens; Babesia divergens, Erythrocyte)","IC50 [1, 5]","IC50 [1, 6]",further results
"CCN(CC)CCCC(C)Nc1ccnc2cc(Cl)ccc12 (stereo not shown) [Chloroquine, reference compound]",–,–,–,–,"IC50 ([1]; Plasmodium falciparum, 3D7, Erythrocyte, read-out: Activity against P. falciparum (3D7), detection 3H-Ethanolamine, Batch A IC50): 0.014 µM; IC50 ([1]; Plasmodium falciparum, 3D7, Erythrocyte, read-out: Activity against P. falciparum (3D7), detection 3H-Hypoxanthine, Batch A IC50): 0.0145 µM"
"COc1nc(N)nc2c1ncn2C[C@@H](O)CCP(=O)(OCCSC(=O)c1ccccc1)OCCSC(=O)c1ccccc1 [Compound 4, 6-O-methyl-9-[(2S)-2-hydroxy-4-bis(S-benzoyl-2-thioethyl)phosphonobutyl]-2-amino Purine]",–,–,–,–,"IC50 [1, 2]: 57 µM; IC50 (K562 cells): 22 µM"
"COc1nc(N)nc2c1ncn2C[C@H](O)CCP(=O)(OCCSC(=O)c1ccccc1)OCCSC(=O)c1ccccc1 [Compound 6, 6-O-methyl-9-[(2R)-2-hydroxy-4-bis(S-benzoyl-2-thioethyl)phosphonobutyl]-2-aminopurine]",–,–,–,–,"IC50 [1, 2]: 62 µM; IC50 (K562 cells): 20 µM"
"Nc1ncnc2c1ncn2C[C@@H](O)CP(=O)(O)O [Compound 10, N-9-[(2R)-2-hydroxy-3-phosphonopropyl] adenine]",> 1000 µM,–,–,–,"IC50 [1, 3]: > 1000 µM"
"Nc1nc2c(ncn2C[C@@H](O)CP(=O)(O)O)c(=O)[nH]1 [Compound 11, N-9-[(2R)-2-hydroxy-3-phosphonopropyl]guanine]",≥ 1000 µM,–,–,–,"IC50 [1, 3]: > 1000 µM"
Nc1ncc2ncn(CC[C@@H](O)CP(=O)(O)O)c2n1 [Compound 16],62 µM,> 100 µM,–,–,–
O=P(O)(O)C[C@H](O)CCn1cnc2cc(Cl)c(Cl)cc21 [Compound 18],> 100 µM,470 µM,–,–,–
O=c1[nH]c(=O)c2ncn(CC[C@@H](O)CP(=O)(O)O)c2[nH]1 [Compound 19],> 100 µM,> 100 µM,–,–,–
O=c1[nH]cnc2c1ncn2CC[C@@H](O)CP(=O)(O)O [Compound 20],> 1000 µM,> 100 µM,–,–,–
O=c1[nH]cnc2c1ncn2CC[C@H](O)CP(=O)(O)O [Compound 21],> 1000 µM,> 100 µM,–,–,–
O=c1[nH]c(=O)c2ncn(CC[C@H](O)CP(=O)(O)O)c2[nH]1 [Compound 22],910 µM,> 1000 µM,–,–,–
"N=C(N)c1ccc(OCCCCCOc2ccc(C(=N)N)cc2)cc1 [Pentamidine, reference compound]",–,0.183 µM,–,–,–
N-9-[(2R)-2-hydroxy-3-phosphonobutyl]guanine [Compound 5],–,–,0.043 µM,0.058 µM,"IC50 [1, 2]: 0.0775 µM; IC50 (K562 cells): 10000 µM; IC50 (Babesia divergens): 0.48 µM; Inhibition of the growth of T. gondii (Toxoplasma gondii; Conc = 5 μM): 42 % of the controls; Inhibition of the growth of T. gondii (Toxoplasma gondii; Conc = 50 μM): 100 % of the controls"
"N-9-[(2R)-2-hydroxy-3-phosphonopropyl]2,6-diamino purine [Compound 13]",–,–,740 µM,510 µM,–
N-9-[(2S)-2-hydroxy-3-phosphono propyl]guanine [Compound 3],–,–,6 µM,3.3 µM,"IC50 [1, 2]: 7.05 µM; IC50 (K562 cells): > 5000 µM; IC50 (Babesia divergens): 3.6 µM; Inhibition of the growth of T. gondii (Toxoplasma gondii; Conc = 5 μM): 0 % of the controls; Inhibition of the growth of T. gondii (Toxoplasma gondii; Conc = 50 μM): 18 % of the controls"
N-9-[(2S)-2-hydroxy-3-phosphono propyl]guanine [Compound 12],–,–,–,–,IC50 (Babesia divergens): > 1000 µM
"N-9-[(2S)-2-hydroxy-3-phosphonopropyl]2,6-diamino purine [Compound 14]",–,–,650 µM,595 µM,–
N-9-[(2S)-2-hydroxy-3-phosphonopropyl] adenine [Compound 9],–,–,> 1000 µM,> 1000 µM,–
N-9[(2R)-2-hydroxy-4-phosphonobutyl]adenine [Compound 2],–,–,> 1000 µM,> 1000 µM,–
